In publication PMC7508466 (Bioorganic & medicinal chemistry letters, 2020):
“Also recorded” adds a separate entry of the source.

How the values were obtained:
human sst2 receptor = human sst2 receptor (Homo sapiens, UniProt P30874); experiment: cAMP functional assay in CHO-K1 cells stably expressing human sst2 receptor; type: cell-based; conditions: for sst2 pEC50±SEM: human sst2, CHO-K1 cells, cAMP, average of two or more independent measurements
hERG channel = hERG channel (Homo sapiens, UniProt Q12809); experiment: hERG inhibition binding assay
Sequence of hERG channel (Q12809 whole entry): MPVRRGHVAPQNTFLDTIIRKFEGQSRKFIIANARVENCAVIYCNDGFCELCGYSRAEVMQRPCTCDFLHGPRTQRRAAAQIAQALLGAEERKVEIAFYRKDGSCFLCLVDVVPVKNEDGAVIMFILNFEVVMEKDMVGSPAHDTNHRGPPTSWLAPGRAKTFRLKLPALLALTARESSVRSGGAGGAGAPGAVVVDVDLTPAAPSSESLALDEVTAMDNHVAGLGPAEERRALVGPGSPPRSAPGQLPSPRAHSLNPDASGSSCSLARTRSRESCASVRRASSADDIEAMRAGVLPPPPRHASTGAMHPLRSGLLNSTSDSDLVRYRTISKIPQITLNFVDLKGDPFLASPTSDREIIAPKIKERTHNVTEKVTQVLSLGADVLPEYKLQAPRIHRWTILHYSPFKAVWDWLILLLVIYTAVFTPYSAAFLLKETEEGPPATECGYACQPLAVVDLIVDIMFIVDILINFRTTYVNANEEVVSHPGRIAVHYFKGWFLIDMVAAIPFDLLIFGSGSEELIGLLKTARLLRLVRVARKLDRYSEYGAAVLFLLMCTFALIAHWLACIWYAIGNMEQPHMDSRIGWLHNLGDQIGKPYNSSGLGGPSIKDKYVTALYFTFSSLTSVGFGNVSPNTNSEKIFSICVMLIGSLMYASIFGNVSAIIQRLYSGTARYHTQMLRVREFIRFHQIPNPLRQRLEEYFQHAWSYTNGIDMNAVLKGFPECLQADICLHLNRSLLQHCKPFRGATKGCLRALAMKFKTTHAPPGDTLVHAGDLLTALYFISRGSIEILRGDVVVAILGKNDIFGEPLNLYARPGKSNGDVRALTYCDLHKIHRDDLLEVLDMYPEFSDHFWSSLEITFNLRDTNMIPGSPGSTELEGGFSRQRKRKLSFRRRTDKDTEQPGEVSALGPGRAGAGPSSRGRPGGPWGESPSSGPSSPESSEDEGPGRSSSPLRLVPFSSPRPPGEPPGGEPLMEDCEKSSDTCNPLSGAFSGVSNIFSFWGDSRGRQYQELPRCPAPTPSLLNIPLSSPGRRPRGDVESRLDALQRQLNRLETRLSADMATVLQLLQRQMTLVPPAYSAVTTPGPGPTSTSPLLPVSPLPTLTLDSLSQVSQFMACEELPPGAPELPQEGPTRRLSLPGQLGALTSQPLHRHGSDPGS

CYP450 3A4 = CYP450 3A4 (Homo sapiens, UniProt P08684); experiment: in vitro screening CYP450 inhibition assay, 3A4; type: in vitro ADME; conditions: top concentration tested 10 μM
Sequence of CYP450 3A4 (P08684 whole entry): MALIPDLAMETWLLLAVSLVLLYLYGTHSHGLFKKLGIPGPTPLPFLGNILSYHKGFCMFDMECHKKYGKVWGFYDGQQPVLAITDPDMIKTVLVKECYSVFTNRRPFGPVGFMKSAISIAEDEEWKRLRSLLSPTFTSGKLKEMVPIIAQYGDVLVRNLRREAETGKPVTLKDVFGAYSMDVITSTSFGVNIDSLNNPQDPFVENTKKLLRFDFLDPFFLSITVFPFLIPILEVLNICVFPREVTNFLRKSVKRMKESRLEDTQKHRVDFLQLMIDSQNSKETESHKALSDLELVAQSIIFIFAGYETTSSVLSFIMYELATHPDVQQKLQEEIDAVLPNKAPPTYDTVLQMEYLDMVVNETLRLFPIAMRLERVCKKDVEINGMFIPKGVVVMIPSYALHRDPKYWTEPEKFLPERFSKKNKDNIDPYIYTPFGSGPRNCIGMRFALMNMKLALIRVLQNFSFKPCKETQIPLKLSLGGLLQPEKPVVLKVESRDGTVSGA

CYP450 2C9 = CYP450 2C9 (Homo sapiens, UniProt P11712); experiment: in vitro screening CYP450 inhibition assay, 2C9; type: in vitro ADME; conditions: top concentration tested 10 μM
Sequence of CYP450 2C9 (P11712 whole entry): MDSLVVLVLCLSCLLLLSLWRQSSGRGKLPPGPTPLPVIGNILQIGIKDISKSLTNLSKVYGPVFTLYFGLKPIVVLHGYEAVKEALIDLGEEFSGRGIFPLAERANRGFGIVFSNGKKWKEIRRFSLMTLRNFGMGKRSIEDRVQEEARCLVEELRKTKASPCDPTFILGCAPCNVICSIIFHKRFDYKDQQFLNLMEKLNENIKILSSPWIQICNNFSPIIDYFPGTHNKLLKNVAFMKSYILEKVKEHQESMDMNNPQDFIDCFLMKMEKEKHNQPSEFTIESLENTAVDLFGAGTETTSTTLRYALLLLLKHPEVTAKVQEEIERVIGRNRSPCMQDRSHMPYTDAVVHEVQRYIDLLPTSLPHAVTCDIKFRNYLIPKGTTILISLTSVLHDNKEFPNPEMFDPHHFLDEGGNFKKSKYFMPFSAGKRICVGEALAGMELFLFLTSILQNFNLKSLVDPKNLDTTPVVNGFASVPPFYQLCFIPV

CYP450 2C19 = CYP450 2C19 (Homo sapiens, UniProt P33261); experiment: in vitro screening CYP450 inhibition assay, 2C19; type: in vitro ADME; conditions: top concentration tested 10 μM
Sequence of CYP450 2C19 (P33261 whole entry): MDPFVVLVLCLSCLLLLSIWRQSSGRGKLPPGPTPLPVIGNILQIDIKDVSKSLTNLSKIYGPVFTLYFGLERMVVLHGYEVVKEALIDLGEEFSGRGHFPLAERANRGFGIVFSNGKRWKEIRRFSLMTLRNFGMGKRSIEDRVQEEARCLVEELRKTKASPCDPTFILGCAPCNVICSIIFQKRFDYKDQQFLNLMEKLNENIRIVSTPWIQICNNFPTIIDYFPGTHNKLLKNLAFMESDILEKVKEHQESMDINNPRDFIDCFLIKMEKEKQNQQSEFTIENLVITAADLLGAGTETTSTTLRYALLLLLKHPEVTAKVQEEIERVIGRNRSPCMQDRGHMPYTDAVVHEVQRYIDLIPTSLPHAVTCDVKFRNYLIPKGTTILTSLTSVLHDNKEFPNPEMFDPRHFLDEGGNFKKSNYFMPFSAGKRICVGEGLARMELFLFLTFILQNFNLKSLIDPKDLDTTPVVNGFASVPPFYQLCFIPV

CYP450 2D6 = CYP450 2D6 (Homo sapiens, UniProt P10635); experiment: in vitro screening CYP450 inhibition assay, 2D6; type: in vitro ADME; conditions: top concentration tested 10 μM
Sequence of CYP450 2D6 (P10635 whole entry): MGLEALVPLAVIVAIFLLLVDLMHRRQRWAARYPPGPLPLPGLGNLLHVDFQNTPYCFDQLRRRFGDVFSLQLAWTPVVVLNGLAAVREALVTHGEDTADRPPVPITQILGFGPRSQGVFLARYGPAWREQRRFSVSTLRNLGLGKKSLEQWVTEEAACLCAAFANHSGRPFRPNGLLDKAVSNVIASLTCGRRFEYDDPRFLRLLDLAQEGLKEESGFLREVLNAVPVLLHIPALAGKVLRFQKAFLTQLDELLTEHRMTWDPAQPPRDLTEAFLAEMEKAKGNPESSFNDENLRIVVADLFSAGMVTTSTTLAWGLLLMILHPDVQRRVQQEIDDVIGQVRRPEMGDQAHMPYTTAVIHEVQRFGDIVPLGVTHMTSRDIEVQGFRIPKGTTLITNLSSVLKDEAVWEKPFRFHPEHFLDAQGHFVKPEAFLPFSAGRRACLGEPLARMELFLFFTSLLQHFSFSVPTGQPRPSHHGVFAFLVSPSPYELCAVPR

[1] = oral administration to male SD rats; type: in vivo, rat

Sequence of human sst2 receptor (P30874 whole entry): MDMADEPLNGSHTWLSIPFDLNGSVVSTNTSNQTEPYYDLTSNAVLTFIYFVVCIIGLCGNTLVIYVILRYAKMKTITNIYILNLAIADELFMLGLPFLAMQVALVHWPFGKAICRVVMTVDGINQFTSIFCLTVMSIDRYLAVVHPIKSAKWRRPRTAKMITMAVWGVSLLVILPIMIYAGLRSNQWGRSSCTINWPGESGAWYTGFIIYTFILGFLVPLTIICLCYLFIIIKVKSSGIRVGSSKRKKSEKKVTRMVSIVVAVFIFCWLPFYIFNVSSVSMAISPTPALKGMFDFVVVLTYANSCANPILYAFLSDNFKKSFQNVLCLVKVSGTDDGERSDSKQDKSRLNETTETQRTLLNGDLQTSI

Row | sst2 pEC50±SEM (human sst2 receptor) | SMILES | further results
1 |  | Cc1cc(C)cc(N2C=Nc3cc(Cl)c(-c4cccc(O)c4)cc3C2C(=O)NC[C@H](C)N)c1 (some centres unmarked) [Compound 5] | sst2 agonist activity (in words) (human sst2 receptor; human sst2, cAMP): completely suppressed its ability to reduce cAMP production
2 |  | Cc1cc(C)cc(N2C=Nc3ccc(-c4cccc(O)c4)cc3C2C(=O)N(C)C[C@H](C)N)c1 (some centres unmarked) [Compound 6] | decrease of sst2 agonist activity relative to compound 4 (human sst2 receptor; human sst2, cAMP): more than 10 fold
3 | 8.0 ± 0.1 | CC[C@H](N)CN(C)C(=O)C1c2cc(-c3cccc(O)c3)c(Cl)cc2N=CN1c1cc(C)cc(C)c1 (some centres unmarked) [Compound 7] | enhancement of sst2 potency relative to compound 4 (human sst2 receptor; human sst2, cAMP): about 3 fold
4 | 8.4 ± 0.2 | CC[C@H](N)CN(C)C(=O)C1c2cc(-c3cccc(O)c3)c(C)cc2N=CN1c1cc(C)cc(C)c1 (some centres unmarked) [Compound 8] | 
5 | 8.9 ± 0.1 | Cc1cc(C)cc(N2C=Nc3cc(C)c(-c4cccc(O)c4)cc3C2C(=O)N(C)C[C@@H]2CCCN2)c1 (some centres unmarked) [Compound 9] | 
6 | 9.5 ± 0.2 | Cc1cc(Cl)cc(N2C=Nc3cc(C)c(-c4cccc(O)c4)cc3C2C(=O)N(C)C[C@@H]2CCCN2)c1 (some centres unmarked) [Compound 10] | 
7 | 9.0 ± 0.1 | Cc1cc(F)cc(N2C=Nc3cc(C)c(-c4cccc(O)c4)cc3C2C(=O)N(C)C[C@@H]2CCCN2)c1 (some centres unmarked) [Compound 11] | 
8 | 7.3 ± 0.0 | Cc1cc(Cl)cc(N2C=Nc3cc(C)c(-c4ccccc4)cc3C2C(=O)N(C)C[C@@H]2CCCN2)c1 (some centres unmarked) [Compound 12] | sst2 agonist activity (in words) (human sst2 receptor; human sst2, cAMP): significantly diminished sst2 agonist activity
9 | 8.3 ± 0.1 | Cc1cc(Cl)cc(N2C=Nc3cc(C)c(-c4cccc(C#N)c4)cc3C2C(=O)N(C)C[C@@H]2CCCN2)c1 (some centres unmarked) [Compound 13] | 
10 | 7.9 ± 0.4 | Cc1cc(Cl)cc(N2C=Nc3cc(C)c(-c4cncc(C#N)c4)cc3C2C(=O)N(C)C[C@@H]2CCCN2)c1 (some centres unmarked) [Compound 14] | 
11 | 7.3 ± 0.0 | Cc1cc(Cl)cc(N2C=Nc3cc(C)c(-c4cccc(C(F)(F)F)c4)cc3C2C(=O)N(C)C[C@@H]2CCCN2)c1 (some centres unmarked) [Compound 15] | 
12 | 7.4 ± 0.0 | Cc1cc(Cl)cc(N2C=Nc3cc(C)c(-c4cccc(Cl)c4)cc3C2C(=O)N(C)C[C@@H]2CCCN2)c1 (some centres unmarked) [Compound 16] | 
13 | 6.8 ± 0.1 | Cc1cc(Cl)cc(N2C=Nc3cc(C)c(-c4cnn(C)c4)cc3C2C(=O)N(C)C[C@@H]2CCCN2)c1 (some centres unmarked) [Compound 17] | sst2 agonist activity (in words) (human sst2 receptor; human sst2, cAMP): substantially reduced potency
14 | 8.4 ± 0.0 | Cc1cc(Cl)cc(N2C=Nc3cc(C)c(-c4cc(F)cc(F)c4)cc3C2C(=O)N(C)C[C@@H]2CCCN2)c1 (some centres unmarked) [Compound 19] | 
15 | 8.2 ± 0.1 | COc1cc(F)cc(-c2cc3c(cc2C)N=CN(c2cc(C)cc(Cl)c2)C3C(=O)N(C)C[C@@H]2CCCN2)c1 (some centres unmarked) [Compound 20] | 
16 | 6.9 ± 0.1 | Cc1cc(Cl)cc(N2C=Nc3cc(C)c(-c4cccc(NS(C)(=O)=O)c4)cc3C2C(=O)N(C)C[C@@H]2CCCN2)c1 (some centres unmarked) [Compound 23] | 
17 | 8.3 ± 0.2 | Cc1cc(Cl)cc(N2C=Nc3cc(C)c(-c4ccc5[nH]c(=O)[nH]c5c4)cc3C2C(=O)N(C)C[C@@H]2CCCN2)c1 (some centres unmarked) [Compound 24] | 
18 | 8.1 ± 0.1 | Cc1cc(Cl)cc(N2C=Nc3cc(C)c(-c4cncc(O)c4)cc3C2C(=O)N(C)C[C@@H]2CCCN2)c1 (some centres unmarked) [Compound 25] | 
19 |  | Cc1cc(Cl)cc(N2C=Nc3cc(C)c(-c4cccc(F)c4O)cc3C2C(=O)N(C)C[C@@H]2CCCN2)c1 (stereo partly drawn) [Compound 28, 3-(3-chloro-5-methylphenyl)-6-(3-fluoro-2-hydroxyphenyl)-N,7-dimethyl-N-{[(2S)-pyrrolidin-2-yl]methyl}-3,4-dihydroquinazoline-4-carboxamide] | hERG inhibition (in words) (hERG channel): moderate inhibitors; also recorded: weak inhibition; CYP 3A4 inhibition (in words) (CYP450 3A4): little inhibition; also recorded: no inhibition; CYP 2C9 inhibition (in words) (CYP450 2C9): little inhibition; also recorded: no inhibition; CYP 2C19 inhibition (in words) (CYP450 2C19): little inhibition; also recorded: no inhibition; CYP 2D6 inhibition (in words) (CYP450 2D6): little inhibition; also recorded: no inhibition; oral exposure (in words) [1]: limited oral exposure
20 | 8.7 ± 0.0 | Cc1cc(Cl)cc(N2C=Nc3cc(C)c(-c4cc(F)ccc4O)cc3C2C(=O)N(C)C[C@@H]2CCCN2)c1 (some centres unmarked) [Compound 29] | 
21 | 9.4 ± 0.1 | Cc1cc(Cl)cc(N2C=Nc3cc(C)c(-c4cc(O)cc(C#N)c4)cc3C2C(=O)N(C)C[C@@H]2CCCN2)c1 (some centres unmarked) [Compound 30] | sst2 agonist activity (in words) (human sst2 receptor; human sst2, cAMP): tolerable
22 |  | Cc1cc(Cl)cc(N2C=Nc3cc(C)c(-c4cc(F)cc(C(N)=O)c4)cc3C2C(=O)N(C)C[C@@H]2CCCN2)c1 (some centres unmarked) [Compound 31] | sst2 agonist activity (in words) (human sst2 receptor; human sst2, cAMP): as potent as compound 26; hERG inhibition (in words) (hERG channel): moderate inhibitors
